“Also recorded” adds a separate entry of the source.
Columns and labels:
Male Sprague-Dawley rats [1] = test: Loss of righting reflex (sleep-time), hypnotic response to dexmedetomidine; type: in vivo, rat; settings: for effect of co-administration on induction of tolerance to the hypnotic effect of dexmedetomidine: NO2-arginine 0.4-4 μg/kg/hr with dexmedetomidine 5 μg/kg/hr for 7 days (FIG. 5C); for effect of co-administration on development of tolerance to the hypnotic effect of dexmedetomidine: MK-801 100 and 400 μg/kg/hr co-administered with dexmedetomidine, challenge 100 μg/kg i.p., pumps removed 1 day prior to testing (FIG. 2C)
Procedure: (§1) The experimental protocol was approved by the Animal Care and Use Committee of the Veterans Affairs Palo Alto Health Care System. Male Sprague-Dawley rats, (B&K, Fremont, Calif.) weighing 250-350 g were used. The rats were stratified to match the distribution of the weights in the groups as closely as possible. All tests were performed between 10 a.m. and 4 p.m. The number of animals for each experiment is listed in the legends.
(§2) Rats were made tolerant to the anesthetic action of an alpha-2 agonist, dexmedetomidine, as described by Reid K et al (ibid). Briefly, rats were administered dexmedetomidine chronically using Alzet® osmotic minipumps (Model 2002 or 1007D, Alza, Palo Alto Calif.), which discharge their contents at a mean pumping rate of 0.48±0.02 μl/h. The pumps were inserted subcutaneously during isoflurane anesthesia in the dorsal thoracic region and loaded to deliver 5 μg/kg/h for 7 days to induce hypnotic tolerance and 10 μg/kg/h for 14 days to induce analgesic tolerance. […] When MK-801 or Nω-nitro-L-arginine (NO2-arginine) was co-administered with dexmedetomidine the MK-801 was included in the same pump. […] For the MK-801 and Nω-nitro-L-arginine (NO2-arginine) hypnotic experiments the pumps were removed one day prior to behavioral testing. In all other experiments the pumps were not removed prior to testing.
Hypnotic response to dexmedetomidine, was defined by the loss of the rat's righting reflex (LORR), and its duration was measured in minutes and referred to as sleep-time. The duration of the LORR was assessed as the time from the rat's inability to right itself when placed on its back until the time that it spontaneously reverted, completely, to the prone position. The hypnotic response test was performed between 10 a.m. and 6 p.m. as described in Reid et al, 1994.
(§3) The NOS inhibitor Nω-nitro-L-arginine (NO2-arginine) (Sigma) and the NMDA antagonists MK-801 (RBI) and ketamine (Sigma) were diluted in normal saline and acutely administered intraperitoneally or administered chronically by means of Alzet® osmotic minipumps (Model 2002 or 1007D, Alza, Palo Alto Calif.). These compounds were co-administered with dexmedetomidine by including both drugs in one pump.
(§4) LORR and tail flick data was analyzed using the analysis of variance (ANOVA) followed by post hoc Bonferroni tests or Dunnett's multiple comparison test or t-test where appropriate.

Male Sprague-Dawley rats [2] = test: Tail flick response to a noxious thermal stimulus (analgesic action of dexmedetomidine); type: in vivo, rat; settings: for effect of acute administration on the analgesic action of dexmedetomidine: tail flick 40 min later
Procedure: as §1, §2
Nociceptive response was assessed by the tail flick response to a noxious thermal stimulus 40 minutes after the administration of the dexmedetomidine challenge dose. A high intensity light beam focused on the tail and the time for the rat to move its tail out of the light was recorded as tail flick latency. This method has been described previously in the literature (Guo T Z et al, ibid). The latencies from three sites on the tail were averaged. A cut-off time of 10 sec was predetermined to prevent tissue damage. Baseline measurements consist of a set of three tail flick determinations at 2 min intervals.
as §3, §4

Male Sprague-Dawley rats [3] = settings: previously demonstrated (Guo T Z et al); cited from earlier work
[4] = 20° C. and normal pressure; cited from earlier work
NMDA receptor = settings: 80% xenon; cultured hippocampal neurons; cited from earlier work
[5] = chronic exposure to dexmedetomidine for 14 days (10 μg/kg/h) (FIG. 1B)

Structure (SMILES): Cc1cccc([C@H](C)c2cnc[nH]2)c1C [dexmedetomidine]
- hypnotic effect of dexmedetomidine (duration of loss of righting reflex), dose response (Male Sprague-Dawley rats [1]; rats chronically treated with dexmedetomidine 5 μg/kg/h for 7 days, even when large doses were given (FIG. 1A)): almost completely absent
- hypnotic effect of dexmedetomidine (duration of loss of righting reflex), dose response (Male Sprague-Dawley rats [1]; sham treated animals, challenge doses (FIG. 1A)): dose dependently increased
- maximal analgesic effect of dexmedetomidine (Male Sprague-Dawley rats [2]; [5]): reduced the maximal effect
- shift of the analgesic dose response curve for dexmedetomidine (Male Sprague-Dawley rats [2]; [5]): about 2 fold
- dose of maximal efficacy of hypnotic action (biphasic dose response curve) (Male Sprague-Dawley rats [3]): around 300 μg/kg

Structure (SMILES): CNC1(c2ccccc2Cl)CCCCC1=O (stereo not shown) [ketamine]
- effect on dexmedetomidine sedation when administered alone (Male Sprague-Dawley rats [1]; ketamine 400 μg/kg/hr alone (FIG. 3C)): without having an effect on dexmedetomidine sedation; also recorded: had no effect by itself
- effect of co-administration on tolerance to the hypnotic (sedative) effect of dexmedetomidine (Male Sprague-Dawley rats [1]; ketamine 400 μg/kg/hr concurrently with dexmedetomidine, challenge 150 μg/kg i.p., pumps left in place (FIG. 3C)): reverses tolerance; also recorded: did reverse tolerance
- effect of acute administration on established tolerance to the hypnotic effect of dexmedetomidine (Male Sprague-Dawley rats [1]; ketamine 10 or 20 mg/kg acute, tolerant rats (FIG. 3B)): does not block dexmedetomidine-induced tolerance; also recorded: could not reverse tolerance
- effect of acute administration on dexmedetomidine-induced sleep time (Male Sprague-Dawley rats [1]; ketamine acute, dexmedetomidine 150 μg/kg i.p. (FIG. 3A)): has no effect on the sleep time
- effect of acute administration on dexmedetomidine-induced sleep time (Male Sprague-Dawley rats [1]; ketamine acute, dexmedetomidine 150 μg/kg i.p. (FIG. 3A), listed as Ketamine): did not affect the sleep time

Structure (SMILES): N=C(NCCC[C@H](N)C(=O)O)N[N+](=O)[O-] [NO2-arginine, Nω-nitro-L-arginine]
- effect of co-administration on induction of tolerance to the hypnotic effect of dexmedetomidine (Male Sprague-Dawley rats [1]): dose-dependently blocks the development of tolerance; also recorded: attenuated
- effect of co-administration on induction of tolerance to the hypnotic effect of dexmedetomidine (Male Sprague-Dawley rats [1]; listed as NO2-Arginine): blocked
- effect of acute administration on dexmedetomidine-induced sleep time (Male Sprague-Dawley rats [1]; NO2-arginine 15 min prior to dexmedetomidine 100 μg/kg i.p., drug naive rats (FIG. 5A)): dependently increases the dexmedetomidine-induced sleep time; also recorded: increased sleep time only at high doses
- effect of acute administration on expression of tolerance to the hypnotic effect of dexmedetomidine (Male Sprague-Dawley rats [1]; low doses of NO2-arginine acute, after 7-day dexmedetomidine, challenge 100 μg/kg (FIG. 5B)): does not reverse the tolerance; also recorded: did not reverse its expression
- effect of acute administration on expression of tolerance to the hypnotic effect of dexmedetomidine (Male Sprague-Dawley rats [1]; low doses of NO2-arginine acute, after 7-day dexmedetomidine, challenge 100 μg/kg (FIG. 5B), listed as NO2-Arginine): does not prevent the expression of tolerance
- effect on dexmedetomidine-induced sleep time when given alone (Male Sprague-Dawley rats [1]; treatment with just NO2-arginine 1.25 μg/kg/hr (FIG. 5C, last column)): does not affect the dexmedetomidine-induced sleep time; also recorded: did not affect the dexmedetomidine sleep time
- effect on dexmedetomidine-induced analgesia in control animals (Male Sprague-Dawley rats [2]; NO2-arginine 4 μg/kg/hr (FIG. 6C)): had no effect on dexmedetomidine-induced analgesia in control animals
- effect on tail flick latency when administered alone (Male Sprague-Dawley rats [2]; NO2-arginine 4 μg/kg/hr alone (data not shown)): had no effect on tail flick latency
- effect of co-administration on analgesic tolerance to dexmedetomidine (Male Sprague-Dawley rats [2]; NO2-arginine 4 μg/kg/hr with dexmedetomidine 10 μg/kg/hr for 14 days (FIG. 6C)): has no effect on analgesic tolerance; also recorded: had no effect on analgesic tolerance
- effect of co-administration on analgesic tolerance to dexmedetomidine (Male Sprague-Dawley rats [2]; NO2-arginine 8 μg/kg/hr with dexmedetomidine 10 μg/kg/hr for 14 days (FIG. 6C)): also ineffective; also recorded: ineffective at reversing tolerance
- effect of acute administration on expression of tolerance to the analgesic action of dexmedetomidine (Male Sprague-Dawley rats [2]; NO2-arginine 1 and 20 mg/kg i.p., dexmedetomidine 100 μg/kg i.p., tolerant rats (FIG. 6B)): does not reverse dexmedetomidine tolerance; also recorded: did not reverse the expression of tolerance
- effect of acute administration on the analgesic action of dexmedetomidine (Male Sprague-Dawley rats [2]; NO2-arginine i.p. 15 min prior to dexmedetomidine 50 μg/kg i.p., naïve rats (FIG. 6A)): has no effect on the analgesic action of dexmedetomidine; also recorded: did not affect the analgesic action of dexmedetomidine

Structure (SMILES): C[C@]12N[C@H](Cc3ccccc31)c1ccccc12 [MK-801]
- effect on dexmedetomidine-induced sleep time (Male Sprague-Dawley rats [1]; MK-801 50 μg/kg acute): has no effect on dexmedetomidine-induced sleep time
- effect of acute administration on dexmedetomidine-induced sleep time (Male Sprague-Dawley rats [1]; MK-801 10-200 μg/kg, naïve animals, dexmedetomidine 100 μg/kg i.p. (FIG. 2A)): did not affect sleep time
- effect of co-administration on development of tolerance to the hypnotic effect of dexmedetomidine (Male Sprague-Dawley rats [1]): blocks tolerance; also recorded: able to prevent the development of tolerance
- effect of co-administration on development of tolerance to the hypnotic effect of dexmedetomidine (Male Sprague-Dawley rats [1]; listed as dizolcipine): blocked
- effect of acute administration on expression of tolerance to the hypnotic effect of dexmedetomidine (Male Sprague-Dawley rats [1]; MK-801 acute, rats already tolerant (dexmedetomidine 5 μg/kg/h, 7 days) (FIG. 2B)): does not block dexmedetomidine-induced tolerance; also recorded: did not affect the expression of tolerance
- effect of acute administration on expression of tolerance to the hypnotic effect of dexmedetomidine (Male Sprague-Dawley rats [1]; MK-801 acute, rats already tolerant (dexmedetomidine 5 μg/kg/h, 7 days) (FIG. 2B), listed as dizolcipine): does not prevent the expression of tolerance
- effect of acute low dose on expression of tolerance to the analgesic effect of dexmedetomidine (Male Sprague-Dawley rats [2]; MK-801 50 μg/kg acute, rats tolerant after dexmedetomidine 10 μg/kg/hr for 14 days (FIG. 4B)): does not prevent the expression of tolerance; also recorded: did not reverse the expression of tolerance
- effect of higher dose on the analgesic action of dexmedetomidine (Male Sprague-Dawley rats [2]; MK-801 400 μg/kg acute, control animals): antagonized the analgesic action of dexmedetomidine
- effect of acute higher dose on tolerance to the analgesic effect of dexmedetomidine (Male Sprague-Dawley rats [2]; MK-801 400 μg/kg acute, tolerant animals): unable to reverse tolerance
- effect of acute administration on the analgesic action of dexmedetomidine (Male Sprague-Dawley rats [2]; MK-801 15 min before dexmedetomidine 50 μg/kg, naive rats (FIG. 4A)): suppressed its analgesic action at the two highest doses
- effect of co-administration on development of analgesic tolerance to dexmedetomidine (Male Sprague-Dawley rats [2]; MK-801 (0.4 μg/kg/hr as printed; maximum dose tolerated by the rat) with dexmedetomidine 10 μg/kg/hr for 14 days (FIG. 4C)): does not prevent the development of tolerance; also recorded: had no effect on the development of analgesic tolerance
- effect of low dose on dexmedetomidine-induced analgesia (Male Sprague-Dawley rats [2]; low dose of MK-801 (50 μg/kg) acute, control animals (FIG. 4B)): did not have any affect on dexmedetomidine-induced analgesia
- effect on tail flick latency / dexmedetomidine's analgesic action when administered alone (Male Sprague-Dawley rats [2]; same chronic dose of MK-801 alone (FIG. 4C)): does not affect dexmedetomidine's analgesic action; also recorded: had no effect on tail flick latency

Structure (SMILES): [Xe] [xenon]
- concentration of xenon dissolved or dispersed in lipid emulsion [4]: 0.2 to 10 ml per ml of emulsion
- reduction of NMDA-activated currents (NMDA receptor): up to 60%

From US6562855B1, “Anaesthetic formulation comprising an NMDA-antagoinst and an alpha-2 adrenergic agonist” (priority 1999, dated 2003)
